Our source for the IC50 values is US20070287738A1, “Substituted Cyanopyridines as protein kinase inhibitors” (priority 2006, published 2007).

Each structure is given as a SMILES string.

As usually defined, the IC50 is the concentration at which inhibition is half-maximal.

Type in all cases: biochemical
Test [1] concerns the target T1, purified recombinant active kinase domain of full length PKC theta (amino acids 362-706) (Homo sapiens, UniProt Q04759).
T1 construct: active kinase domain of full length PKC theta (amino acids 362-706)
Briefly: Radioactive kinase assay for inhibition of the active kinase domain (KD) of PKCθ. The conditions noted are these: radioactive (ATP γ P33) assay, average value. Here is the method:
A Radioactive Kinase Assay for Inhibition of the Active Kinase Domain (KD) of PKCθ
(§1) This assay is based on the phosphorylation of a biotinylated substrate by a kinase utilizing radiolabeled ATP (ATP γ P33). The substrate was a biotinylated peptide with a sequence of biotin-FARKGSLRQ-C(O)NH2. The enzyme was purified recombinant active kinase domain of full length PKC theta (amino acids 362-706). The assay buffer was composed of 100 mM Hepes, pH7.5, 2 mM MgCl2, 20 mM β-glycerophosphate and 0.008% TritonX 100. A reaction mixture of ATP, ATP γ P33 (PerkinElmer), DTT, and the enzyme was prepared in the assay buffer and added to a 96-well polypropylene plate. The compound (diluted in DMSO in a separate 96-well polypropylene plate) was added to the reaction mixture and incubated at room temperature. Following the incubation, the peptide substrate was added to the reaction mixture to initiate the enzymatic reaction. The reaction was terminated with the addition of a stop solution (100 mM EDTA, 0.2% TritonX100, and 20 mM NaHPO4) and transferred from the assay plate to a washed streptavidin-coated 96-well scintiplate (PerkinElmer). The scintiplate was incubated at room temperature, washed in PBS with 0.1% TritonX 100, and counted in the 1450 Microbeta Trilux (Wallac, Version 2.60). Counts were recorded for each well as corrected counts per minute (CCPM). The counts were considered corrected because they were adjusted according to a P33 normalization protocol, which corrects for efficiency and background differences between the instrument detectors (software version 4.40.01).

The target in test [2] is T2, purified recombinant full length PKC theta (Panvera, P2996) (Homo sapiens, UniProt Q04759).
T2 construct: purified recombinant full length PKC theta (Panvera, P2996); purchased Panvera P2996
T2 sequence (Q04759 whole entry): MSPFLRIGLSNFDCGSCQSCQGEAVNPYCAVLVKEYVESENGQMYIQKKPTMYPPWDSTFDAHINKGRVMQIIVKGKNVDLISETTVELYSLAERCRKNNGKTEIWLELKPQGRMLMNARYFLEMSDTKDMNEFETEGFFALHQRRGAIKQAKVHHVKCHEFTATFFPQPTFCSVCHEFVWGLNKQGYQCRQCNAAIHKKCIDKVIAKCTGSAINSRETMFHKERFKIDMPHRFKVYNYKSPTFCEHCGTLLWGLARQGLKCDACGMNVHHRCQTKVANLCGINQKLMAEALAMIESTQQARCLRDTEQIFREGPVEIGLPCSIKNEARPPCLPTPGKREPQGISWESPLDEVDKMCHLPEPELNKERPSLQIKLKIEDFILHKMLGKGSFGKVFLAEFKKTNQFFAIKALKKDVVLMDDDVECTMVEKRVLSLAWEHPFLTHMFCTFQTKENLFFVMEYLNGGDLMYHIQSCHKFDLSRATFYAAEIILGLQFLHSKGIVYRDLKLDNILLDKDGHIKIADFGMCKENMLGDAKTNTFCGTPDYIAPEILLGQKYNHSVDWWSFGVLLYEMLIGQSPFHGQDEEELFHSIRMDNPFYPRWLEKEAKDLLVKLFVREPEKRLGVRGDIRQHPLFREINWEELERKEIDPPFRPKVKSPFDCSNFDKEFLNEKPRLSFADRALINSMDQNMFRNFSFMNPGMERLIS
Kind of test: Radioactive kinase assay for inhibition of full length (FL) PKCθ. The conditions noted are these: full length enzyme; radioactive (ATP γ P33) assay; average value. Here is the method: as §1
A Radioactive Kinase Assay for Inhibition of Full Length (FL) PKCθ Inhibitors
This assay differs from what was described above in that the enzyme used was purified recombinant full length PKC theta (Panvera, P2996).

Test [3] deals with T3, human PKCθ full length enzyme (Homo sapiens, UniProt Q04759).
T3 construct: human PKCθ full length enzyme (Panvera Cat# P2996); purchased Panvera P2996
T3 sequence (Q04759 whole entry): as above
Kind of test: PKCθ IMAP assay. The conditions noted are these: full length enzyme 1 nM; ATP 6 μM; peptide 100 nM; FP readout; average value. As to the method: The materials used include the following: human PKCθ full length enzyme (Panvera Cat# P2996); substrate peptide: 5FAM-RFARKGSLRQKNV-OH (Molecular Devices, RP7032); ATP (Sigma Cat # A2383); DTT (Pierce, 20291); 5× kinase reaction buffer (Molecular Devices, R7209); 5× binding buffer A (Molecular Devices, R7282), 5× binding buffer B (Molecular Devices, R7209); IMAP Beads (Molecular Devices, R7284); and 384-well plates (Corning Costar, 3710).
The reaction buffer was prepared by diluting the 5× stock reaction buffer and adding DTT to obtain a concentration of 3.0 mM. The binding buffer was prepared by diluting the 5× binding buffer A. A master mix solution was prepared using a 90% dilution of the reaction buffer containing 2× ATP (12 uM) and 2× peptide (200 nm). Compounds were diluted in DMSO to 20× of the maximum concentration for the IC50 measurement. 27 μl of the master mix solution for each IC50 curve was added to the first column in a 384-well plate and 3 μl of 20× compound in DMSO was added to each well. The final concentration of compound was 2× and 10% DMSO. DMSO was added to the rest of the master mix to increase the concentration to 10%. 10 μl of the master mix containing 10% DMSO was added to the rest of the wells on the plate except the 2nd column. 20 μl was transferred from the first column to the 2nd column.
The compounds were serially diluted in 2:1 ratio starting from the 2nd column. A 2× (2 nM) PKCθ solution was made in the reaction buffer. 10 μl of the PKCθ solution was added to every well to achieve these final concentrations: PKCθ—1 nM; ATP—6 μM; peptide—100 nM; DMSO—5%. Samples were incubated for 25 minutes at room temperature. The binding reagent was prepared by diluting the beads in 1× binding buffer to 800:1. 50 μl of the binding reagent was added to every well and incubated for 20 minutes. FP was measured using Envision2100 (PerkinElmer Life Sciences). Wells with no ATPs and wells with no enzymes were used as controls.

T1 sequence (Q04759 362-706): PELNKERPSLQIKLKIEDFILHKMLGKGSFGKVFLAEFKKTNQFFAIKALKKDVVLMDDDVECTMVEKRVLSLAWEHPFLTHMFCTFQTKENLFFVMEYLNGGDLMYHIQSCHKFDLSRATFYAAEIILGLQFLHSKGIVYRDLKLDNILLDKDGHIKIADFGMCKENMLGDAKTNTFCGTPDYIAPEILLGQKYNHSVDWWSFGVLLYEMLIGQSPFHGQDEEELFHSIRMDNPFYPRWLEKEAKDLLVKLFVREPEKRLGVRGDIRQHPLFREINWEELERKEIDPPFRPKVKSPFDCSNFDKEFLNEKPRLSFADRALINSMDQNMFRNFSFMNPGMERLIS

As to `COc1ccc(-c2cncc(C#N)c2Nc2ccc(Cl)c(Cl)c2)cc1OC` [Compound 115, 4-[(3,4-dichlorophenyl)amino]-5-(3,4-dimethoxyphenyl)nicotinonitrile], the figures for the IC50 in test [1] and in test [2] were 4260 nM and 380 nM, respectively.
As for `COc1cc(Nc2c(C#N)cncc2-c2ccc(OC)c(OC)c2)c(Cl)cc1Cl` [Compound 137, 4-[(2,4-dichloro-5-methoxyphenyl)amino]-5-(3,4-dimethoxyphenyl)nicotinonitrile], the IC50 in test [1] is 190 nM; in test [2], 160 nM; in test [3], 180 nM.
